Data on 3 compounds can be found in US9096591B2, “Tetracyclic compounds” (Medivation Technologies, Inc., priority 2007, dated 2015).

SMILES strings stand for the structures.

In one assay the test system is AMPA receptors. Kind of assay: AMPA-receptor activity: kainic acid-induced currents in Purkinje cells (patch-clamp). It counts as cell-based, rat. To be noted: mean±SEM, control=100%. The procedure:
The analysis of effects of the testing compounds on AMPA receptors was carried out using an electrophysiological patch-clamp method in whole cell configuration (Hamill et al., 1980) of the Purkinje cell fresh isolated from the cerebellum of juvenile rats (12-15 days). The isolation was carried out using a modified method (Kaneda et al., 1988) in which cerebral 400-600 μm sections were incubated for 60 min in the temperature controlled chamber in 10 mL of buffer solution (150 mM NaCl, 5 mM KCl, 2 mM CaCl2, 2 mM MgSO4.7H2O, 10 mM HEPES, 15 mM glucose, pH 7.42). The incubation solution was exchanged with the incubation buffer with pronase (2 mg/mL) and collagenase (1 mg/mL) for 70 min. After a 20 min wash with the original buffer, all sections were placed into the Petri dish and were separated using a Pasteur pipette. All solutions were constantly aerated with 100% O2 at 34° C. The composition of extracellular saline was: 150 mM NaCl, 5 mM KCl, 2.6 mM CaCl2, 2 mM MgSO4.7H2O, 10 mM HEPES, 15 mM glucose, pH 7.36. The transmembrane current was induced as a result of the activation of AMPA receptors by a superfusion with the agonist solution (kainic acid). The currents were measured using borosilicate microelectrodes (resistance […]) filled with 100 mM KCl, 11 mM EGTA, 1 mM CaCl2, 1 mM MgCl2, 10 mM HEPES, 5 mM ATP, pH 7.2. The currents were registered using EPC-9 (HEKA, Germany) and recorded with Pulse software package which was also purchased from HEKA. The analysis of observations was carried out using Pulsefit (HEKA, Germany) and the statistical significance was analyzed using a Student's T-test criteria. Data are presented as mean±SEM in % of control values.
Compounds of the invention were tested in 3-5 neurons. Every concentration of compound was repeated three-four times in every neuron. Data are presented as mean±SEM in % of Control values (Table 13+14, FIGS. 8-12). Control value=100%.
(Patch clamp records ionic current or voltage across a cell membrane.)

A further assay concerns rat brain mitochondria. Kind of assay: Calcium retention capacity of mitochondria. Format: biochemical, Wistar rats. To be noted: at concentrations near the IC50. The procedure: Analyses of extramitochondrial Ca^2+ following a bolus dose of Ca^2+ were performed under energized conditions, in a sucrose based buffer (250 mM sucrose, 10 mM HEPES, 1 mM Pi (K), 1 mM MgCl2, 10 μM EGTA, pH 7.2) containing 5 mkM Arsenazo III, 1 μg/ml oligomycin and 20 μM ADP with 5 mM malate and glutamate as respiratory substrates in a cuvette in a Beckman DU 640 spectrophotometer.

The next assay has as its system C57BL/6 mice. The assay is described as follows: Recognition of the new object (non-spatial recognition memory). It counts as in vivo. An excerpt: The object recognition test is based on the fact that mice and rats spontaneously explore new object or location of a known object a lot longer than the know object or a known location of an object. This test was first used in rats (Ennaceur A., Delacour J., 1988). It was further shown by others that this type of memory testing is suitable for mice (Dodart J. et al. 1997, Messier C. 1997, Pittenger C. et al., 2002, Ryabinin A. et al., 2002, Sargolini F. et al., 2003). The method of recognition of an object is divided in two stages. The first one involves the recognition of a new location of a known object, which is used to assess spatial memory. The second one includes a test for recognition of a new in order to evaluate the non-spatial memory (Gaffan D., 1992, Kolb B. et al., 1994, Steckler T., 1998). Currently, both are widely used to determine the effectiveness of newly synthesized drugs on memory.
Dimebon and compounds of the invention were dissolved in distilled water and administered orally at 0.05 mL per 10 g of animal mass 1 hour before the training exercise. All animals in the control group were treated with the equivalent dose of vehicle. The testing was performed 48 hours after the training exercise because animals forget the location of the object during the 48-hour resting time.
The following experiment was also performed on 3-4 months old males (C57BL/6 line) with 10 animals in each group. All animals were kept in the animal facility (5 animals per cage) on the 12×12 hours light cycle (8 am-8 pm) with free access to food and water. However, in this case a round bottom testing chamber 52 cm in diameter (20.5 inches) and 34 cm (13.4 inches) high was used. Similarly, brown glass vials were used as test objects which are 2.7 cm in diameter (1.1 inch) and 5.5 cm high (2.2 inch). The testing compounds were administered orally at 0.05 mL per 10 g of animal mass 1 hour before the training exercise. All animals in the control group were treated with the equivalent dose of vehicle. The testing was performed 48 hours after the training exercise because animals forget the location of the object during the 48-hour resting time.
The experimental procedure was identical to the previously described test (Recognition of a new location of a known object). The major difference is in the testing procedure which involved one known object (brown glass vial) and one unknown object. The second glass vial was substituted with metallic cylinder 3 cm (1.2 inches) in diameter and 4.5 cm (1.8 inches) high.
Due to fair differences in the amount of time that each animal surveyed the object, the percentage of the survey time for each animal was determined using this formula: tNL/(tFL+tNL)×100 (where t is time, NL—new location(object), and FL—familiar location(object)). As 100% was taken the total amount of time that animals explored both objects. Subsequently, the statistical significance was analyzed using a Student's t-test criteria.

Assay [1] deals with T1, Serotonin (5-Hydroxytryptamine) 5-HT7 (Homo sapiens, UniProt P34969).
T1 construct: expressed in transfected cells; host or cells: CHO cells
T1 sequence (P34969 whole entry): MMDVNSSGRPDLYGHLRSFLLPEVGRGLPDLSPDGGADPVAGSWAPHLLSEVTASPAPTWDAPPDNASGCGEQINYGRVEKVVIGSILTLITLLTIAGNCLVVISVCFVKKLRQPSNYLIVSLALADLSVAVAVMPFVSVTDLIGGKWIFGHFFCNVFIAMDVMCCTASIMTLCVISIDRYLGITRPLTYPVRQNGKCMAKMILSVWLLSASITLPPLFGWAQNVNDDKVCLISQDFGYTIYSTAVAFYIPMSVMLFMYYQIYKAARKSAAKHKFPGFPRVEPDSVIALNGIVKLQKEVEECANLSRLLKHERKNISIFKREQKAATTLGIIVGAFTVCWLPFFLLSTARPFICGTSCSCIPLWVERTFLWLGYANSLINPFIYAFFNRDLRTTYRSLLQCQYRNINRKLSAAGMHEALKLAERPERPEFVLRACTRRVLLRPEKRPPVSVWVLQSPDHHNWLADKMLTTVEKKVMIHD
Kind of assay: Serotonin 5-HT7 radioligand binding ([3H]LSD). Set-up: Inhibition of ligand binding, Ser. 5-HT7: concentration or dose not given beside the values. To be noted: percent inhibition of specific binding. The procedure:
Lysergic acid diethylamide (LSD) for 2 hours at 25° C. […] Receptor proteins were filtered and washed, the filters were then counted to determine [^3H]LSD specifically bound. […] Biochemical assay results are presented as the percent inhibition of specific binding in Table 6.

Setting [2] is: 0.05 mg/kg, 1 hour prior to training, test 48 hours after training.

With `CN1CCc2c(c3cc(Cl)ccc3n2CCc2nc(-c3ccccc3)cs2)C1` [Compound C1-8], the “kainic acid-induced currents in Purkinje cells, % of Control values” with AMPA receptors (compound 3 × 10^−5 M) amounted to 90 ± 7%; with AMPA receptors (compound 10^−5 M), 105 ± 8%; in the assay on AMPA receptors (compound 10^−6 M), 123 ± 8%; in the assay on AMPA receptors (compound 10^−7 M), 102 ± 3%; in the assay on AMPA receptors (compound 10^−8 M), 100 ± 4%. For the same compound, in the assay on rat brain mitochondria, the “calcium-retention capacity of mitochondria” value is given as “increased the calcium-retention capacity of mitochondria”.

On to `Cc1ccc2c(c1)c1c(n2CCc2ccc(C)nc2)CCN(C)C1` [Dimebon, dimebon, reference compound], for which the “effect on memory in the new object recognition test” value is listed as “memory activating effect” in the assay on C57BL/6 mice (0.005 mg/kg), “not statistically significant” in the assay with C57BL/6 mice (0.5 mg/kg) and “the stimulating effect on memory returned” in the assay on C57BL/6 mice (1-2 mg/kg). In addition, in the assay on C57BL/6 mice (setting [2]), the “time spent to recognize the known object, % of the total time” value stood at 34.4±4.4%. Also, the “time spent to recognize the new object, % of the total time” value with C57BL/6 mice (setting [2]) was 65.6±4.4%.

In the case of `CN1CCc2c(c3cc(Cl)ccc3n2CCc2ccc(C(F)(F)F)nc2)C1` [Compound 250], in assay [1], the “Inhibition of ligand binding, Ser. 5-HT7” value is on record as 93%.
